Experimental data taken from the CheMixHub viscosity set.

Test: xn = mol fraction of the nth substance listed

CC(C)(C)C(=O)O + CCCN(CCC)CCC
viscosity [mPa·s], 101 kPa
Settings | 293.15 K | 298.15 K | 303.15 K | 308.15 K | 313.15 K | 318.15 K | 323.15 K
x1 = 0.1 | 1.239 | 1.113 | 1.09 | 1.007 | 0.961 | – | –
x1 = 0.2 | 1.593 | 1.416 | 1.371 | 1.265 | 1.163 | 1.088 | 1.017
x1 = 0.3 | 1.998 | 1.897 | 1.631 | 1.619 | 1.474 | 1.375 | 1.285
x1 = 0.4 | 3.304 | 2.795 | 2.479 | 2.325 | 2.14 | 1.94 | 1.79
x1 = 0.5 | 5.525 | 4.857 | 3.946 | 3.56 | 3.069 | 2.62 | 2.72
x1 = 0.6 | 14.34 | 11.43 | 9.15 | 7.47 | 6.17 | 5 | 4.15
x1 = 0.7 | 41.75 | 29.64 | 21.72 | 16.62 | 12.77 | 10.24 | 8.33
x1 = 0.725 | 62.84 | 43.6 | 31.12 | 22.68 | 17.62 | 14.04 | 11.21
x1 = 0.75 | 69.2 | 52.11 | 39.98 | 28.77 | 21.17 | 17.53 | 13.24
x1 = 0.8 | 54.33 | 40.03 | 28.38 | 21.17 | 16.84 | 13.12 | 10.81
x1 = 0.9 | 15.35 | 11.96 | 9.46 | 7.88 | 6.57 | 5.51 | 4.73

CCOC(=O)CC(C)=O + CCCO
viscosity [mPa·s], 100 kPa
Settings | x1 = 0.0644 | x1 = 0.1297 | x1 = 0.2035 | x1 = 0.2808 | x1 = 0.3716 | x1 = 0.4706 | x1 = 0.5808 | x1 = 0.7083 | x1 = 0.8379
293.15 K | 1.907 | 1.663 | 1.448 | 1.344 | 1.321 | 1.346 | 1.395 | 1.46 | 1.563
298.15 K | 1.675 | 1.515 | 1.404 | 1.32 | 1.279 | 1.281 | 1.295 | 1.336 | 1.413

OCCO + CCCO
Settings | viscosity [mPa·s]
298.15 K, 101 kPa, x1 = 0.442 | 4.972
298.15 K, 101.33 kPa, x1 = 0.0111 | 2.005
298.15 K, 101.33 kPa, x1 = 0.0207 | 2.055
298.15 K, 101.33 kPa, x1 = 0.0321 | 2.115
298.15 K, 101.33 kPa, x1 = 0.0482 | 2.198
298.15 K, 101.33 kPa, x1 = 0.0722 | 2.331
298.15 K, 101.33 kPa, x1 = 0.0979 | 2.467
298.15 K, 101.33 kPa, x1 = 0.1442 | 2.723
298.15 K, 101.33 kPa, x1 = 0.1912 | 3.012
298.15 K, 101.33 kPa, x1 = 0.2372 | 3.32
298.15 K, 101.33 kPa, x1 = 0.2938 | 3.751
298.15 K, 101.33 kPa, x1 = 0.345 | 4.192
298.15 K, 101.33 kPa, x1 = 0.3886 | 4.617
298.15 K, 101.33 kPa, x1 = 0.4295 | 5.053
298.15 K, 101.33 kPa, x1 = 0.4681 | 5.512
298.15 K, 101.33 kPa, x1 = 0.5096 | 6.052
298.15 K, 101.33 kPa, x1 = 0.5452 | 6.565
298.15 K, 101.33 kPa, x1 = 0.5843 | 7.175
298.15 K, 101.33 kPa, x1 = 0.6533 | 8.397
298.15 K, 101.33 kPa, x1 = 0.6993 | 9.322
298.15 K, 101.33 kPa, x1 = 0.7522 | 10.5
298.15 K, 101.33 kPa, x1 = 0.7998 | 11.68
298.15 K, 101.33 kPa, x1 = 0.84 | 12.75
298.15 K, 101.33 kPa, x1 = 0.8875 | 14.13
298.15 K, 101.33 kPa, x1 = 0.918 | 15.08
298.15 K, 101.33 kPa, x1 = 0.9609 | 16.5
298.15 K, 101.33 kPa, x2 = 0.0188 | 17.2
308.15 K, 101 kPa, x1 = 0.442 | 3.67
318.15 K, 101 kPa, x1 = 0.442 | 2.755

C=CCN=C=S + CCN(CC)c1ccccc1
303.15 K, 101 kPa
Settings | viscosity [mPa·s]
x1 = 0.25 | 1.248
x1 = 0.5 | 1.007
x1 = 0.7 | 0.857
x1 = 0.75 | 0.822
x1 = 0.8 | 0.785

C=CCN=C=S + CCNc1ccccc1
viscosity [mPa·s], 101 kPa
Settings | x1 = 0.2366 | x1 = 0.4021 | x1 = 0.4673 | x1 = 0.5 | x1 = 0.5346 | x1 = 0.6032 | x1 = 0.7385
298.15 K | 5.955 | 18.81 | 37.55 | 48.24 | 29.45 | 7.747 | 2.277
323.15 K | 2.83 | 6.28 | 9.92 | 11.98 | 8.399 | 3.234 | 1.313

OCCO + CCO
viscosity [mPa·s], 101 kPa
Settings | x1 = 0.1 | x1 = 0.2 | x1 = 0.3 | x1 = 0.3778 | x1 = 0.4 | x1 = 0.5 | x1 = 0.6 | x1 = 0.7 | x1 = 0.8 | x1 = 0.9
298.15 K | 1.439 | 1.908 | 2.546 | 3.567 | 3.382 | 4.487 | 5.986 | 7.908 | 10.41 | 13.61
308.15 K | 1.05 | 1.524 | 1.991 | 2.688 | 2.581 | 3.346 | 4.363 | 5.645 | 7.295 | 9.374
318.15 K | 0.9744 | 1.253 | 1.604 | 2.13 | 2.053 | 2.598 | 3.325 | 4.216 | 5.306 | 6.652

S=C=S + CCO
298.15 K, 101 kPa
Settings | viscosity [mPa·s]
x1 = 0.1096 | 0.9448
x1 = 0.1264 | 0.9535
x1 = 0.1726 | 0.9065
x1 = 0.2241 | 0.8407
x1 = 0.2832 | 0.7621
x1 = 0.4039 | 0.6659
x1 = 0.5848 | 0.5669
x1 = 0.6266 | 0.5466
x1 = 0.7329 | 0.4926

CCC(=O)c1ccccc1 + CCOC(C)=O
viscosity [mPa·s], 101 kPa
Settings | x1 = 0.0764 | x1 = 0.1569 | x1 = 0.2419 | x1 = 0.3317 | x1 = 0.4268 | x1 = 0.5276 | x1 = 0.6347 | x1 = 0.7486 | x1 = 0.8701
303.15 K | 0.4784 | 0.5399 | 0.6088 | 0.6897 | 0.7853 | 0.8977 | 1.034 | 1.199 | 1.398
308.15 K | 0.4618 | 0.519 | 0.5844 | 0.6608 | 0.7493 | 0.8602 | 0.9953 | 1.153 | 1.333
313.15 K | 0.4426 | 0.4991 | 0.5564 | 0.6277 | 0.7199 | 0.8175 | 0.9454 | 1.095 | 1.261

S=C=S + CCOC(C)=O
298.15 K, 101 kPa
Settings | viscosity [mPa·s]
x2 = 0.1445 | 0.367
x2 = 0.3581 | 0.389
x2 = 0.6307 | 0.416

S=C=S + CCOCC
298.15 K, 101 kPa
Settings | viscosity [mPa·s]
x2 = 0.1341 | 0.338
x2 = 0.3497 | 0.306
x2 = 0.6338 | 0.269

CCC(=O)c1ccccc1 + CCOCCO
viscosity [mPa·s], 101 kPa
Settings | x1 = 0.0756 | x1 = 0.1554 | x1 = 0.2397 | x1 = 0.3291 | x1 = 0.4239 | x1 = 0.5246 | x1 = 0.6319 | x1 = 0.7464 | x1 = 0.8688
303.15 K | 1.562 | 1.555 | 1.547 | 1.54 | 1.532 | 1.526 | 1.522 | 1.517 | 1.515
308.15 K | 1.466 | 1.464 | 1.462 | 1.461 | 1.461 | 1.461 | 1.462 | 1.464 | 1.466
313.15 K | 1.366 | 1.369 | 1.372 | 1.376 | 1.381 | 1.387 | 1.394 | 1.401 | 1.41
318.15 K | 1.279 | 1.285 | 1.291 | 1.3 | 1.309 | 1.32 | 1.331 | 1.343 | 1.357
